Here are results for 24 compounds from patent publication US12528761B2, “Thyromimetics” (Autobahn Therapeutics, Inc., priority 2020, dated 2026).

One may read the EC50 as the concentration giving half of the maximal effect.

Read-outs that look alike come from different tables or passages of the source.

One experiment has as its target T1, TRα (Homo sapiens, UniProt P10827).
T1 construct: expressed in transfected cells; host or cells: HEK293
T1 sequence (P10827 1-410 isoform P10827-2): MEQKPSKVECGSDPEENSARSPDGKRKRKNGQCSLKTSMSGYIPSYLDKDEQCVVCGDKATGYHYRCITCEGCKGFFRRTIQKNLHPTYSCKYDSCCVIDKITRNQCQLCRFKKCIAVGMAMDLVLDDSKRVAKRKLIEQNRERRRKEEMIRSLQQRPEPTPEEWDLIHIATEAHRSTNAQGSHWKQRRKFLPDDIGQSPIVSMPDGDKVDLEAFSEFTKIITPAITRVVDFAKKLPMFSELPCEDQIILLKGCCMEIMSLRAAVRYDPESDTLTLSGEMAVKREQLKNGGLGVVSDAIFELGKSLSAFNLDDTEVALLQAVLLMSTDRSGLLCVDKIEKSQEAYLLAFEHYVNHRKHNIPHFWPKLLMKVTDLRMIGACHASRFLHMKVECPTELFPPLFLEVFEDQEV
Nature of the experiment: TR reporter-gene assay (Gal4 DBD hybrid, luciferase), TRα. Format: cell-based. The method in brief:
(§1)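 HEK293 reporter cells expressing Gal4-DBD/TR ligand-binding hybrids driving firefly luciferase from a Gal4 UAS; cells pre-incubated 6 h, then treated 24 h at 37 °C in medium with 10% charcoal-stripped FBS (final DMSO 0.1–0.4%), in duplicate. Read-out was luminescence (RLU).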

Another experiment addresses T2, TRβ (Homo sapiens, UniProt P10828).
T2 construct: expressed in transfected cells; host or cells: HEK293
T2 sequence (P10828 217-461 limits assumed): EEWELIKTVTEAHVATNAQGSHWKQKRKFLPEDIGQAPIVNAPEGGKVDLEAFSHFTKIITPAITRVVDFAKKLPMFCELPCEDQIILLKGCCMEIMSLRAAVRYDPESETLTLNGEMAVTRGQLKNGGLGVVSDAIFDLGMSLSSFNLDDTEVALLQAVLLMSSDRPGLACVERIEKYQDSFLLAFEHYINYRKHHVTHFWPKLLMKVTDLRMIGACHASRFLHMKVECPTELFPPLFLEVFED
Nature of the experiment: TR reporter-gene assay (Gal4 DBD hybrid, luciferase), TRβ. Format: cell-based. The method, boiled down:
as §1

Setting [1] is: HEK293-derived reporter cells, 24 hr treatment, read-out: TRα EC50.
Setting [2] is: HEK293-derived reporter cells, 24 hr treatment, read-out: TRβ EC50.

For the compound `Cc1cc(SCC(=O)O)cc(Cl)c1Cc1ccc(O)c(C(C)C)c1` [Compound 123, 2-((3-chloro-4-(4-hydroxy-3-isopropylbenzyl)-5-methylphenyl)thio)acetic acid], the EC50 on TRα (setting [1]) and on TRβ (setting [2]) was 100 to 1000 nM in each case. For the same compound, the “T3-SI (selectivity index, EC50 (TRα)/EC50 (TRβ))” value on TRβ (class symbols) is “++ (3× < T3-SI ≤ 30×)”.
With `Cc1cc(CSCC(=O)O)cc(Cl)c1Cc1ccc(O)c(C(C)C)c1` [Compound 124, 2-((3-chloro-4-(4-hydroxy-3-isopropylbenzyl)-5-methylbenzyl)thio)acetic acid], the EC50 on TRα (setting [1]) and at TRβ (setting [2]) was 10 to 100 nM throughout. Moreover, the “T3-SI (selectivity index, EC50 (TRα)/EC50 (TRβ))” value at TRβ (class symbols) was “++ (3× < T3-SI ≤ 30×)”.
Take `Cc1cc(NCC(=O)O)cc(Cl)c1Cc1ccc(O)c(C(C)C)c1` [Compound 125, (3-chloro-4-(4-hydroxy-3-isopropylbenzyl)-5-methylphenyl)glycine]: the EC50 on TRα (setting [1]) and at TRβ (setting [2]) was 10 to 100 nM in each case. Further, the “T3-SI (selectivity index, EC50 (TRα)/EC50 (TRβ))” value at TRβ (class symbols) was “++ (3× < T3-SI ≤ 30×)”.
Turning to `C/C(=C\c1cc(Cl)c(Cc2ccc(O)c(C(C)C)c2)c(C)c1F)C(=O)O` [Compound 128, (E)-3-(5-chloro-2-fluoro-4-(4-hydroxy-3-isopropylbenzyl)-3-methylphenyl)-2-methylacrylic acid], the EC50 at TRα (setting [1]) and on TRβ (setting [2]) was 10 to 100 nM throughout. On TRβ (class symbols), the “T3-SI (selectivity index, EC50 (TRα)/EC50 (TRβ))” value is “++ (3× < T3-SI ≤ 30×)”.
Turning to `Cc1c(F)c(NCC(=O)O)cc(Cl)c1Cc1ccc(O)c(C(C)C)c1F` [Compound 133, (5-chloro-2-fluoro-4-(2-fluoro-4-hydroxy-3-isopropylbenzyl)-3-methylphenyl)glycine], the EC50 on TRα (setting [1]) and on TRβ (setting [2]) was less than 10 nM throughout. Moreover, the “T3-SI (selectivity index, EC50 (TRα)/EC50 (TRβ))” value at TRβ (class symbols) was “++ (3× < T3-SI ≤ 30×)”.
As to `CC(C)c1cc(Cc2c(Cl)cc(CC(N)C(=O)O)cc2Cl)ccc1O` (stereo not drawn) [Compound 143, 2-amino-3-(3,5-dichloro-4-(4-hydroxy-3-isopropylbenzyl)phenyl)propanoic acid], the 50% effective concentration (EC50) on TRα (setting [1]) and on TRβ (setting [2]) was 10 to 100 nM throughout. Besides, at TRβ (class symbols), the “T3-SI (selectivity index, EC50 (TRα)/EC50 (TRβ))” value was “+ (T3-SI ≤ 3×)”.
Turning to `CC(C)c1cc(Cc2c(Cl)cc(CC3NC(=O)NC3=O)cc2Cl)ccc1O` (stereo not drawn) [Compound 144, 5-(3,5-dichloro-4-(4-hydroxy-3-isopropylbenzyl)benzyl)imidazolidine-2,4-dione], the EC50 on TRα (setting [1]) is 100 to 1000 nM; at TRβ (setting [2]), greater than 1000 nM. For the same compound, on TRβ (class symbols), the “T3-SI (selectivity index, EC50 (TRα)/EC50 (TRβ))” value is “+ (T3-SI ≤ 3×)”.
Regarding `CC(C)c1cc(Cc2c(Cl)cc(N(C)CC(=O)O)cc2Cl)ccc1O` [Compound 148, N-(3,5-dichloro-4-(4-hydroxy-3-isopropylbenzyl)phenyl)-N-methylglycine], the EC50 at TRα (setting [1]) and at TRβ (setting [2]) was greater than 1000 nM each time. Also, the “T3-SI (selectivity index, EC50 (TRα)/EC50 (TRβ))” value at TRβ (class symbols) is “+ (T3-SI ≤ 3×)”.
Turning to `C[Si](C)(C)c1c(O)ccc(Cc2c(Cl)cc(CC(=O)O)c(F)c2Cl)c1F` [Compound 151, 2-(3,5-dichloro-2-fluoro-4-(2-fluoro-4-hydroxy-3-(trimethylsilyl)benzyl)phenyl)acetic acid], the EC50 at TRα and at TRβ was 100 to 1000 nM throughout. Further, at TRβ (class symbols), the “T3-SI (selectivity index, EC50 (TRα)/EC50 (TRβ))” value was “++ (3× < T3-SI ≤ 30×)”.
For `CC(C)c1cc(Cc2c(Cl)cc(CNCC(=O)O)c(F)c2Cl)ccc1O` [Compound 152, (3,5-dichloro-2-fluoro-4-(4-hydroxy-3-isopropylbenzyl)benzyl)glycine], the EC50 on TRα (setting [1]) and on TRβ (setting [2]) was 100 to 1000 nM throughout. The “T3-SI (selectivity index, EC50 (TRα)/EC50 (TRβ))” value at TRβ (class symbols) is “++ (3× < T3-SI ≤ 30×)”.
Take `CC(C)c1c(O)ccc(Cc2c(Cl)cc(CNCC(=O)O)c(F)c2Cl)c1F` [Compound 153, (3,5-dichloro-2-fluoro-4-(2-fluoro-4-hydroxy-3-isopropylbenzyl)benzyl)glycine]: the EC50 on TRα (setting [1]) and at TRβ (setting [2]) was 10 to 100 nM in each case. Moreover, the “T3-SI (selectivity index, EC50 (TRα)/EC50 (TRβ))” value at TRβ (class symbols) was “++ (3× < T3-SI ≤ 30×)”.
Turning to `CC(C)c1c(O)ccc(Cc2c(Cl)cc(CSCC(=O)O)cc2Cl)c1F` [Compound 200, 2-((3,5-dichloro-4-(2-fluoro-4-hydroxy-3-isopropylbenzyl)benzyl)thio)acetic acid], the EC50 on TRα (setting [1]) and at TRβ (setting [2]) was less than 10 nM each time. For the same compound, on TRβ (class symbols), the “T3-SI (selectivity index, EC50 (TRα)/EC50 (TRβ))” value was “++ (3× < T3-SI ≤ 30×)”.
Turning to `C=C(Cc1cc(Cl)c(Cc2ccc(O)c(C(C)C)c2F)c(Cl)c1)C(=O)O` [Compound 201, 2-(3,5-dichloro-4-(2-fluoro-4-hydroxy-3-isopropylbenzyl)benzyl)acrylic acid], the EC50 on TRα (setting [1]) and on TRβ (setting [2]) was less than 10 nM in each case. For the same compound, on TRβ (class symbols), the “T3-SI (selectivity index, EC50 (TRα)/EC50 (TRβ))” value is “++ (3× < T3-SI ≤ 30×)”.
On to `CC(C)c1c(O)ccc(Cc2c(Cl)cc(SCC(=O)O)cc2Cl)c1F` [Compound 203, 2-((3,5-dichloro-4-(2-fluoro-4-hydroxy-3-isopropylbenzyl)phenyl)thio)acetic acid], for which the EC50 on TRα (setting [1]) and at TRβ (setting [2]) was 10 to 100 nM in each case. In addition, the “T3-SI (selectivity index, EC50 (TRα)/EC50 (TRβ))” value on TRβ (class symbols) is “++ (3× < T3-SI ≤ 30×)”.
On to `CC(C)c1cc(Cc2c(Cl)cc(SCC(=O)O)c(F)c2Cl)ccc1O` [Compound 204, 2-((3,5-dichloro-2-fluoro-4-(4-hydroxy-3-isopropylbenzyl)phenyl)thio)acetic acid], for which the EC50 at TRα (setting [1]) and on TRβ (setting [2]) was 10 to 100 nM throughout. In addition, on TRβ (class symbols), the “T3-SI (selectivity index, EC50 (TRα)/EC50 (TRβ))” value is “++ (3× < T3-SI ≤ 30×)”.
Consider `C/C(=C\c1cc(Cl)c(Cc2ccc(O)c(C(C)C)c2F)c(Cl)c1)C(=O)O` [Compound 205, (E)-3-(3,5-dichloro-4-(2-fluoro-4-hydroxy-3-isopropylbenzyl)phenyl)-2-methylacrylic acid], for which the EC50 on TRα (setting [1]) and on TRβ (setting [2]) was less than 10 nM each time. Further, the “T3-SI (selectivity index, EC50 (TRα)/EC50 (TRβ))” value on TRβ (class symbols) is “++ (3× < T3-SI ≤ 30×)”.
Regarding `CC(C)c1c(O)ccc(Cc2c(Cl)cc(CC3NC(=O)NC3=O)cc2Cl)c1F` (stereo not drawn) [Compound 206, 5-(3,5-dichloro-4-(2-fluoro-4-hydroxy-3-isopropylbenzyl)benzyl)imidazolidine-2,4-dione], the EC50 on TRα (setting [1]) and on TRβ (setting [2]) was greater than 1000 nM each time. Further, on TRβ (class symbols), the “T3-SI (selectivity index, EC50 (TRα)/EC50 (TRβ))” value is “+++ (T3-SI > 30×)”.
As to `CC(C)c1c(O)ccc(Cc2c(Cl)cc(CC(N)C(=O)O)cc2Cl)c1F` (stereo not drawn) [Compound 207, 2-amino-3-(3,5-dichloro-4-(2-fluoro-4-hydroxy-3-isopropylbenzyl)phenyl)propanoic acid], the EC50 on TRα (setting [1]) is greater than 1000 nM; on TRβ (setting [2]), 100 to 1000 nM. Besides, the “T3-SI (selectivity index, EC50 (TRα)/EC50 (TRβ))” value on TRβ (class symbols) is “+ (T3-SI ≤ 3×)”.
Taken in the same sequence, the figures for `CC(C)c1cc(Cc2c(Cl)cc(C[S+]([O-])CC(=O)O)cc2Cl)ccc1O` (stereo not drawn) [Compound 210, 2-((3,5-dichloro-4-(4-hydroxy-3-isopropylbenzyl)benzyl)sulfinyl)acetic acid] were greater than 1000 nM, greater than 1000 nM and “++ (3× < T3-SI ≤ 30×)”.
For `CC(C)c1c(O)ccc(Cc2c(Cl)cc(NC(=O)C(=O)O)cc2Cl)c1F` [Compound 213, 2-((3,5-dichloro-4-(2-fluoro-4-hydroxy-3-isopropylbenzyl)phenyl)amino)-2-oxoacetic acid], the EC50 on TRα (setting [1]) and at TRβ (setting [2]) was 100 to 1000 nM each time. Besides, at TRβ (given as a number), the “T3-SI (selectivity index, EC50 (TRα)/EC50 (TRβ))” value was 7.15.
`Cc1c(F)c(CNCC(=O)O)cc(Cl)c1Cc1ccc(O)c(C(C)C)c1` [Compound 221, (5-chloro-2-fluoro-4-(4-hydroxy-3-isopropylbenzyl)-3-methylbenzyl)glycine]: the EC50 at TRα (setting [1]) and on TRβ (setting [2]) was 100 to 1000 nM in each case. On TRβ (class symbols), the “T3-SI (selectivity index, EC50 (TRα)/EC50 (TRβ))” value is “++ (3× < T3-SI ≤ 30×)”.
As to `Cc1cc(NCC(=O)O)c(F)c(Cl)c1Cc1ccc(O)c(C(C)C)c1` [Compound 222, (3-chloro-2-fluoro-4-(4-hydroxy-3-isopropylbenzyl)-5-methylphenyl)glycine], the EC50 at TRα (setting [1]) and on TRβ (setting [2]) was 10 to 100 nM each time. Moreover, the “T3-SI (selectivity index, EC50 (TRα)/EC50 (TRβ))” value at TRβ (class symbols) was “++ (3× < T3-SI ≤ 30×)”.
As to `Cc1c(F)c(NCC(=O)O)cc(Cl)c1Cc1ccc(O)c(C(C)C)c1` [Compound 223, (5-chloro-2-fluoro-4-(4-hydroxy-3-isopropylbenzyl)-3-methylphenyl)glycine], the EC50 on TRα (setting [1]) and at TRβ (setting [2]) was 10 to 100 nM throughout. Further, the “T3-SI (selectivity index, EC50 (TRα)/EC50 (TRβ))” value on TRβ (class symbols) is “++ (3× < T3-SI ≤ 30×)”.
Turning to `Cc1cc(CSCC(=O)O)c(F)c(Cl)c1Cc1ccc(O)c(C(C)C)c1` [Compound 224, 2-((3-chloro-2-fluoro-4-(4-hydroxy-3-isopropylbenzyl)-5-methylbenzyl)thio)acetic acid], the EC50 on TRα (setting [1]) and at TRβ (setting [2]) was 100 to 1000 nM throughout. Also, the “T3-SI (selectivity index, EC50 (TRα)/EC50 (TRβ))” value at TRβ (class symbols) is “++ (3× < T3-SI ≤ 30×)”.
